Columns and labels:
Assay type in all cases: binding
[1] = test system: intact ZIKV particles; assay: Direct ELISA vs intact ZIKV particles; settings: for LOD: LOD=SB+3×SDB, interpolated from calibration curve; for FPLR maximum / FPLR minimum: delta absorbance 450 nm; for Long-term stability: dose-response performance of the assay; for FPLR C50 / FPLR slope: four-parameter logistic fit; for FPLR Dynamic Range: optimized peptide concentration of Table 5 (0.5-20 μM; 4G2 1 μg/ml); for dynamic range of dose-response curve (orders of magnitude): in words
Protocol: Before biotin functionalization, peptides stock solution was reduced using trialkylphosphine (TCEP) from ThermoFisher Scientific (www.thermofisher.com) and after 1 h the gel was removed using TCEP gel spin separation columns (ThermoFisher Scientific). Then, 2-fold molar excess of EZ-Link™ Maleimide-PEG2-Biotin (ThermoFisher Scientific) was added to purified peptide solution and incubated for 1 h. […] Therefore, no further separation was carried out.
(§1) To optimize all parameters of the direct ELISA protocol, Pierce 96-Well Polystyrene Plates, (ThermoFisher Scientific) were coated overnight at 4° C. with different concentrations of intact virus particles (ZIKV or DENV). The intact virus particles were diluted using 100 mM NaHCO3, pH 9.6, and aliquots of 100 μL were dispensed into each well of the plate using a multichannel pipette. This buffer pH assured a strong hydrophobic binding interaction between polystyrene and virus particles.
(§2) Intact particles both ZIKV and DENV were provided by Dr. Watkins group (University of Miami, Dep. of Pathology). The samples were controlled and counted by focus forming assay and RT-PCR, the details were reported in a previous work (Magnani et al., 2017). The Intact particles of ZIKV were inactivated using gamma irradiation. Assay biohazardous steps were carried out according to standard safety procedures.
(§3) After coating the plates overnight, the intact virus particles were removed by washing five times with the washing buffer (PBST) 10 mM PBS pH 7.4, 0.1% Tween-20, using an automated plate washer (MultiWash+, Molecular Devices, Sunnyvale, Calif.). Then, the plates were blocked with 200 μL of blocking buffers while shaking at 300 rpm at room temperature. The blocking buffers used were: Pierce™ Protein-Free (PBS) Blocking Buffer (PF), Blocker™ BLOTTO in TBS, SuperBlock™ Blocking Buffer, Blocker™ BSA (1×) in PBS. All blocking buffer were from ThermoFisher Scientific.
(§4) After 2 h the blocking buffers were removed using the same washing procedure mentioned above. 100 μL-aliquots of several dilutions of peptides biotinylated in 10 mM PBS pH 7.4 were placed in each well and incubated for 2 h while shaking at 300 rpm at room temperature. After the incubation, the unreacted peptides were removed by using the plate washer with the same settings. Then, 100 μL-aliquots of streptavidin-HRP (ThermoFisher Scientific) at a concentration of 20 ng/mL were added into each well and incubated for 30 min at room temperature without shaking. After the incubation, excess streptavidin-HRP was removed and the wells were washed with the plate washer five times using the washing buffer. Finally, 100 μL-aliquots of the Ultra TMB-ELISA Substrate Solution (ThermoFisher Scientific) were added and after 10 min the reaction was stopped by adding 100 μL aliquots of the TMB stop solution (SeraCare). The emission (450 nm) was read using a microplate reader (Clariostar Optima; BMG Labtech, Ortenberg, Germany).
The corresponding blank signals in triplicates were obtained by using all reagents without peptides. The blank signal was then subtracted to the average absorbance values for triplicate wells of each test.
The eight clamp peptides and the four mono-arm peptides selected, were tested vs intact ZIKV particles by using a direct ELISA. The peptides were biotinylated by using the maleimide-PEG2-biotin reagent that reacts with the sulfhydryl group of the cysteine efficiently and specifically by forming a stable thioether bond. The antibody 4G2 hybridoma mouse IgG2a was used as the reference and employed in combination with an anti-mouse IgG conjugated to HRP.
All analytical parameters involved in the development of ELISA were optimized by using 96-well plates coated with triplicate 10-fold serial dilutions of intact ZIKV particles.
Thus, the peptide concentrations reported in Table 5 were used to estimate the dynamic range and the LOD of the assay by using 10-fold serial dilutions of intact ZIKV particles from 10^^1 to 10^^8 copies/mL. […]

[2] = test system: intact DENV particles (DENV-1, -2 and -3); assay: Cross-reactivity direct ELISA vs DENV serotypes
Protocol: as §1, §2, §3, §4
The cross-reactivity among Flaviviruses is a key parameter to be tested for this assay. […]

[3] = test system: intact ZIKV particles; assay: Direct ELISA matrix effect in urine and serum; settings: urine 1:1, serum 1:10 diluted; 10^5 and 10^6 copies/mL ZIKV
Protocol: Usually, the presence of ZIKV in affected bodies is detected in biological fluids. Therefore, the analytical sensitivity of the selected peptides was tested in two biological matrices, namely, urine and serum. The matrix effect was investigated to understand how real biological fluids could modify the binding efficiency of the peptides.
FIG. 4 depicts the ELISA data using solutions of peptides with or without the urine and serum obtained coating clear 96-well plates with 10^^5 and 10^^6 copies/mL of intact ZIKV particles. Urine and serum were 1:1 and 1:10 diluted, respectively, with a concentrated peptide PBS solution (10 mM PBS, pH 7.4) to obtain a peptide final concentration of 0.5 μM for C3 and C6, 5 μM for C7 and 20 μM for mono-arm peptides (P2 and X1).

[4] = all DENV serotypes, 10^5 copies/mL coating

Row | Substance | LOD [1] | FPLR maximum [1] | FPLR minimum [1] | Long-term stability [1] [Month] | FPLR C50 [1] | FPLR slope [1] | FPLR Dynamic Range [1] | dynamic range of dose-response curve (orders of magnitude) [1] | signal decrease DENV vs ZIKV [2, 4] | ELISA performance in urine and serum [3] | signal decrease DENV vs ZIKV ([2]; DENV-2, 10^5 copies/mL coating) [%] | signal decrease DENV vs ZIKV ([2]; DENV-3, 10^5 copies/mL coating) [%]
1 | C5: clamp peptide AGRRP (20) - bridge GPGCCGPG (32) - SWPGQ (24) (AGRRPGPGCCGPGSWPGQ; C5 Binds to Active Site 2; Bridge peptide; C1 Binds to Active Site 1) | 5.8 log[ZIKV], copies/mL | 0.17 ΔA | 0.01 ΔA | >1 | 6.4 log[ZIKV], copies/mL | 25.6 | 6-7 log[ZIKV], copies/mL |  |  |  |  | 
2 | C-LRGHA (CLRGHA; P2) [mono-arm pentapeptide with N-terminal cysteine] | 4.5 log[ZIKV], copies/mL | 0.94 ΔA | 0.04 ΔA | >1 | 6.2 log[ZIKV], copies/mL | 19.9 | 5-7 log[ZIKV], copies/mL |  |  |  |  | 
3 | C3: clamp peptide WPWIGT (18) - bridge GPGCCGPG (32) - KRNATP (26) (WPWIGTGPGCCGPGKRNATP; C3 Binds to Active Site 2; Bridge peptide; C3 Binds to Active Site 1) | 3.5 log[ZIKV], copies/mL | 0.67 ΔA | 0.05 ΔA | >1 | 5.3 log[ZIKV], copies/mL | 8.7 | 4-7 log[ZIKV], copies/mL | three-order of magnitude | around 70% | better performance in urine than serum |  | 
4 | C-KTDAYS (CKTDAYS; X2) [mono-arm hexapeptide with N-terminal cysteine] | 5.8 log[ZIKV], copies/mL | 0.91 ΔA | 0.01 ΔA | >1 | 6.1 log[ZIKV], copies/mL | 27.7 | 6-8 log[ZIKV], copies/mL |  |  |  |  | 
5 | C2: clamp peptide WPHTQ (16) - bridge GPGCCGPG (32) - LRGHA (25) (WPHTQGPGCCGPGLRGHA; C1 Binds to Active Site 2; Bridge peptide; C2 Binds to Active Site 1) | 4.5 log[ZIKV], copies/mL | 0.55 ΔA | 0.05 ΔA | >1 | 6.2 log[ZIKV], copies/mL | 25.4 | 5-7 log[ZIKV], copies/mL |  |  |  |  | 
6 | C-SWPGQ (CSWPGQ; P1) [mono-arm pentapeptide with N-terminal cysteine] | 6.8 log[ZIKV], copies/mL |  |  | >1 |  |  | 7-8 log[ZIKV], copies/mL | one order of magnitude |  |  |  | 
7 | C8: clamp peptide MDSPIK (22) - bridge GPGCCGPG (32) - KTDAYS (27) (MDSPIKGPGCCGPGKTDAYS; C7 Binds to Active Site 2; Bridge peptide; C4 Binds to Active Site 1) | 4.7 log[ZIKV], copies/mL | 0.82 ΔA | 0.03 ΔA | >1 | 6.2 log[ZIKV], copies/mL | 33.9 | 5-7 log[ZIKV], copies/mL |  |  |  |  | 
8 | C4: clamp peptide WPWIGT (18) - bridge GPGCCGPG (32) - KTDAYS (27) (WPWIGTGPGCCGPGKTDAYS; C3 Binds to Active Site 2; Bridge peptide; C4 Binds to Active Site 1) | 5.7 log[ZIKV], copies/mL | 0.40 ΔA | 0.02 ΔA | >1 | 6.3 log[ZIKV], copies/mL | 32.8 | 6-7 log[ZIKV], copies/mL |  |  |  |  | 
9 | C6: clamp peptide AGRRP (20) - bridge GPGCCGPG (32) - LRGHA (25) (AGRRPGPGCCGPGLRGHA; C5 Binds to Active Site 2; Bridge peptide; C2 Binds to Active Site 1) | 3.5 log[ZIKV], copies/mL | 0.53 ΔA | 0.05 ΔA | >1 | 5.2 log[ZIKV], copies/mL | 10.1 | 4-7 log[ZIKV], copies/mL | three-order of magnitude |  | strong decrease in the signal | 45 | 55
10 | C7: clamp peptide MDSPIK (22) - bridge GPGCCGPG (32) - KRNATP (26) (MDSPIKGPGCCGPGKRNATP; C7 Binds to Active Site 2; Bridge peptide; C3 Binds to Active Site 1) | 3.7 log[ZIKV], copies/mL | 0.95 ΔA | 0.01 ΔA | >1 | 5.8 log[ZIKV], copies/mL | 5.3 | 4-7 log[ZIKV], copies/mL | three-order of magnitude | around 70% | best performance among the three clamp peptides |  | 
11 | C-KRNATP (CKRNATP; X1) [mono-arm hexapeptide with N-terminal cysteine] | 4.8 log[ZIKV], copies/mL | 0.98 ΔA | 0.03 ΔA | >1 | 6.1 log[ZIKV], copies/mL | 20.8 | 5-7 log[ZIKV], copies/mL |  |  |  |  | 
